Where two headings read alike, the source gives them in different places.
How the values were obtained:
[1] = Adverse events in patients of study SAF001; format: in vivo, human
Protocol: All studies were conducted in accordance with the Good Clinical Practice guidelines and Declaration of Helsinki. The protocols were approved by the independent ethics committee of each investigation site, and all subjects provided informed consent. The tumor responses were assessed by the IRC based on the Response Evaluation Criteria in Solid Tumors (RECIST) 1.1 conditions. The exposure–efficacy analyses of SAF-189s were conducted based on data from patients in the SAF001 study to explore the relationships between systemic exposure and efficacy endpoints, including the ORR, PFS, and duration of response (DOR). The exposure–safety analyses of SAF-189s were conducted based on data from patients in the SAF001 study to explore the relationships between the systemic exposure and safety endpoints, including the adverse events (AEs) of interest. In these studies, the SAF-189s plasma concentrations were analyzed using validated liquid chromatography tandem mass spectrometry within the assay range of 0.5–150 ng mL^–1.
The exposure–safety relationships were characterized using the exposure metrics to the first occurrence of an event. The AEs of interest selected for analysis included hyperglycemia and proteinuria. The individual post hoc PK parameters from the final PopPK model and the first dosage were used to calculate the Cmin,ss, Cmax,ss, and AUCss at steady state, which were used as the exposure metrics. The exposure–safety analysis was performed using a logistic regression modeling approach.

[2] = system: ALK+/ROS1+ advanced NSCLC; settings: ref Yang et al., cited from earlier work; for ORR: phase II, 2022a
[3] = previous NCA results, no reference given, cited from earlier work
[4] = ROS1-naive patients, phase IIa, 2022b

For Cc1cc(Nc2ncc(Cl)c(Nc3ccccc3S(=O)(=O)C(C)C)n2)c2c(c1C1CCN(C)CC1)C[C@@H](C)O2 [SAF-189s], the tolerability ([1]; 160 mg QD dosing regimen) was “well tolerated”, the “incidence of drug-related TEAE leading to permanent discontinuation” value ([1]; 160 mg dose group) was 2% and the “incidence of grade ≥3 TEAE” value ([1]; 160 mg dose group, ALK+ and ROS1+ patients (n = 153)) was “less than 9.15%”. For the same molecule, the tolerability ([1]; 210 mg dose vs other lower doses) was “less tolerated”, the “incidence rate of hyperglycemia” value ([1]; SAF001 patients, any grade) was 55.74% and the “Diarrhea, number of patients (%)” value ([1]; any grade, N = 296) was 65 (21.96%). The “Hypercholesterolemia or cholesterol increase, number of patients (%)” value ([1]; any grade, N = 296) was 111 (37.50%), the “Hyperglycemia, number of patients (%)” value ([1]; any grade, N = 296) was 165 (55.74%) and the “Nausea, number of patients (%)” value ([1]; any grade, N = 296) was 112 (37.84%). The “Proteinuria, number of patients (%)” value ([1]; any grade, N = 296) was 90 (30.41%), the “Vomiting, number of patients (%)” value ([1]; any grade, N = 296) was 102 (34.46%) and the “Diarrhea, number of patients (%)” value ([1]; ≥ Grade 2, N = 296) was 17 (5.74%). The “Hypercholesterolemia or cholesterol increase, number of patients (%)” value ([1]; ≥ Grade 2, N = 296) was 27 (9.12%), the “Hyperglycemia, number of patients (%)” value ([1]; ≥ Grade 2, N = 296) was 82 (27.70%) and the “Nausea, number of patients (%)” value ([1]; ≥ Grade 2, N = 296) was 8 (2.70%). The “Proteinuria, number of patients (%)” value ([1]; ≥ Grade 2, N = 296) was 28 (9.46%), the “Vomiting, number of patients (%)” value ([1]; ≥ Grade 2, N = 296) was 15 (5.07%) and the “IRC-assessed ORR” value [2, 4] was 94.1%. For the same molecule, the “median progression-free survival (PFS)” value [2, 4] was 16.5 months, the ORR ([2]; ALK+ patients with brain metastases) was 74.6% and the ORR ([2]; ALK-inhibitor-naive patients) was 92.3%. The ORR ([2]; crizotinib-pretreated group) was 65.4%, the ORR ([2]; overall ALK+ patients) was 78.7% and the “IRC-assessed ORR” value ([2]; phase IIb, ROS1-naive, brain metastases subgroup, 2022b) was 85.7%. The “IRC-assessed ORR” value ([2]; phase IIb, overall ROS1-naive patients, 2022b) was 80.4%, the “apparent clearance (CL/F)” value ([3]; after multiple doses at 20 mg once daily) was 132 L h^–1 and the “apparent clearance (CL/F)” value ([3]; after multiple doses at 210 mg once daily) was 58.3 L h^–1.

— publication PMC11286589, “Population pharmacokinetics and exposure–response analyses of SAF-189s in Chinese patients with ALK+/ROS1+ non-small cell lung cancer” (Frontiers in Pharmacology, 2024)
